Assay results as given in paper PMC7617869, “Molecular glues that inhibit deubiquitylase activity and inflammatory signaling” (Nature Structural & Molecular Biology, 2025).
Values joined by “and” are separate entries in the source; they are usually repeats but may differ in a detail not shown here. Equal values may be shown once.

Columns and labels:
[1] = tested on: IFNAR1 cell surface levels in sgROSA MCF10A cells; experiment: MCF10A sgROSA IFNAR1 cell surface levels (FACS); assay type: cell-based, human
Protocol: To study the direct effect of BRISC DUB inhibitors, IFNAR1 surface levels were measured using flow cytometry (FACS) analysis. For this purpose, MCF10A WT and MCF10A BRCC45 KO cells expressing […]
BRCC45 WT or BRCC45 R137A were used. […]
minutes prior to the addition of 50 ng/mL of hIFN-Iα for various time points (45 minutes and 90 minutes).
After IFN treatment, cells were dissociated from plate using cell dissociation Buffer (ThermoFisher Scientific, #13150016) and were stained with LIVE/DEAD™ Fixable Violet Dead Cell Stain Kit, for 405 nm excitation (ThermoFisher Scientific, #L34963) for 30 minutes, as per the kit protocol. The cells were then washed using FACS buffer (DPBS, 1% BSA, 2 mM EDTA, 0.09% sodium azide) and transferred to 96-well round bottom plates. Resuspended cells were divided into three repeats for each sample, each was surface stained for 1 hour at 4 °C with: 1. Human IFN-alpha/beta R1 Antibody (R&D systems, #MAB245), 2. Mouse IgG1 Isotype Control (R&D systems, #MAB002), 3. FACS buffer (control cells).
Following incubation, cells were washed once with FACS buffer and were labelled for 30 minutes at 4 °C with either Biotin-SP-conjugated AffiniPure Donkey Anti-Mouse IgG (H+L) (Jackson Immunoresearch Laboratories) for samples 1 and 2 or with FACS buffer for sample 3. Cells were washed twice with FACS buffer and were labelled for 15 minutes at 4 °C with either R-Phycoerythrin-conjugated Streptavidin (Jackson Immunoresearch Laboratories) for samples 1 and 2 or with FACS buffer for sample 3. Cells were washed 3 times with FACS buffer and were analysed by FACS (MACSQuant, Miltenyi Biotec). For each sample from group 1 the Geo mean fluorescence intensity (MFI) of its isotype sample was reduced. IFNAR1 cell surface percentage was calculated by 100*(MFI

[2] = tested on: IFNAR1 ubiquitylation in MCF10A cells; experiment: TUBE pull-down of ubiquitylated IFNAR1 in MCF10A cells; assay type: cell-based, human; parameters: Blot Mean, Background substracted: unit not given here; conditions: for IFNAR1 ubiquitylation: MCF10A, IFNα2 50 ng/mL, 5 µM, compared to DMSO, AP-5-145 and FX-171-A
Protocol: Tandem ubiquitin binding entity (TUBE) pull -down assay
The TUBE pull -down experiment was performed according to the manufacturer’s (UM401: TUBE 1 Agarose; LifeSensors) protocol with modifications. MCF10A cells (~20 x10 6) were pre -treated with the […] inhibitor panel (5 µM) or DMSO vehicle control for 1 hour followed by addition of recombinant IFNα2 (50 ng/m L, 592702, BioLegend). Following 1 hour incubation with IFNα2, cells were lysed in cell lysis buffer (50 mM Tris -HCl, pH 7.5, 0.15 M NaCl, 1 mM EDTA, 1% NP -40, 10% glycerol, 10 mM […]
NEM). Cell lysates were clarified by centrifugation at 15,000 g for 10 minutes at 4 °C. Clarified lysates were pre-cleared with control uncoupled agarose beads (UM400, LifeSensors) for 30 minutes on a rotator at 4 °C followed by centrifugation at 5,000 g for 2 minutes. Equal amount of pre-cleared lysates from individual samples were incubated with 20 µL Agarose-TUBE beads (pre-equilibrated with 1X Tris-buffered saline (TBS)) overnight on a rotator at 4 °C. Beads were collected by centrifugation at 5,000 g for 2 minutes at RT followed by four stringent washes with 1X TBST (TBS, 0.1% Tween-20). TUBE-pulldown proteins were eluted by boiling Agarose-TUBE beads in 2X LDS sample buffer supplemented with […] DTT for 15 minutes. Eluted proteins were resolved on NuPAGE™ 4–12% Bis–Tris gel followed by Western blotting using anti-IFNAR1 antibody (ab124764, Abcam).
PBMCs in vitro experiments
Peripheral blood mononuclear cells (PBMCs) from healthy and SSc donors were separated using density gradient method (Leucosep™, Greiner Bio-One International) from EDTA anticoagulated peripheral blood; isolated cells were washed twice by PBS. PBMCs were then incubated in RPMI1640 […]
For healthy PBMCs, cells were stimulated with 20 ng/mL of IFN (+/- compounds or DMSO). For SSc PBMCs, cells were in basal conditions with no additional IFN stimulation. Cells were centrifuged at 300 g for 10 minutes. Supernatant was removed and subjected to R&D Systems DY266 Human CXCL10/IP-10 DuoSet ELISA (Biotechne) in duplicates, according to manufacturer’s guidance. Concentration of CXCL10 was determined according to a 4-parameter logistic regression standard curve. RNA was extracted from cell pellets using TRIzol™ (ThermoFisher Scientific, Waltham, MA) and processed using Quick-RNA Miniprep Kit (Zymo Research) as per the manufacturer’s instruction.
For Type I IFN signalling analysis, the human IFN I RT2 Profiler PCR Array (Qiagen, PAMM-016ZE) was performed on available RNA from healthy (n=3) and SSc (n=9) donors. RNA was converted to cDNA using RT2 First Strand Kit (Qiagen). Next, the cDNA was mixed with RT2 SYBR Green Mastermix (Qiagen, Venlo). Successful PCR performance was confirmed by assay tests for genomic DNA contamination, RNA sample quality, as well as single melt curve determination and <35 Ct for each gene, leading to validated gene expression of 67 genes. Relative expression for each gene was determined, firstly by ∆CT calculated using the geometric mean of 4 housekeeping genes (ACTB, GAPDH, HPRT1, RPLP0), followed by 2^(-∆CT), and expressed as fold change to control, according to manufacturer’s guidance. IFN2α-induced ISGs in healthy donors were determined using a Student’s t-test (two-tail distribution and equal variances) on the triplicate fold change in 2^(-ΔCT) values between […]
donors). Heatmaps were generated using the “pheatmap” function in R (v4.0.2) and RStudio (v1.3.1093) applying row scaling to standardise the expression data across samples (R core team 2020.
R Foundation for Statistical Computing). The IFN2α inducible genes determined in healthy donors […]
171-C. To account for Type I IFN signalling heterogeneity across samples, the mean 2^(-∆CT) for each […]
relative gene expression, illustrated as a fold change and visualised in log2. The Type I IFN signalling array data for the patient samples is included in Source Data Figure 6, Extended Data Fig. 9.

[3] = IFN + compound, three replicates
[4] = TUBE pull-down IFNAR1 blot densitometry, biological replicates 1-3
[5] = sgROSA cells, IFN 50 ng/ml, 5 μM, 90 min

SMILES	IFNAR1 cell surface levels [1, 3]	Fold Change ([2]; TUBE pull-down IFNAR1 blot densitometry, relative to DMSO = 1, biological replicates 1-3)	Blot Mean, Background substracted [2, 4]	IFNAR1 cell surface levels [1, 5]	IFNAR1 ubiquitylation [2]
Cn1cc(NC(=O)c2c(Cl)cccc2Cl)c(C(=O)NC2CCN(C(=O)c3c(Cl)cccc3Cl)CC2)n1 [AP-5-145]	50.5911 and 49.9799 and 55.4831	1.205 and 1.413 and 1.158	48.742 and 43.008 and 72.446	–	–
O=C(NC1C2CNCC21)c1nn(C(=O)c2c(Cl)cccc2Cl)cc1NC(=O)c1c(Cl)cccc1Cl (centres unmarked) [FX-171-C]	42.0302 and 41.4187 and 41.1741	–	52.149 and 49.341 and 95.856	reduction in IFNAR1 cell surface levels	elevated levels of IFNAR1 ubiquitylation
O=C(NC1CCNCC1)c1nn(C(=O)c2c(Cl)cccc2Cl)cc1NC(=O)c1c(Cl)cccc1Cl [JMS-175-2]	40.6849 and 39.7065 and 39.3396	–	63.299 and 57.607 and 102.609	reduction in IFNAR1 cell surface levels	elevated levels of IFNAR1 ubiquitylation
